This passage reports Activity results from ChEMBL document CHEMBL1687836, “Oral hexadecyloxypropyl-cidofovir therapy in pregnant guinea pigs improves outcome in the congenital model of cytomegalovirus infection” (Antimicrob Agents Chemother, 2011).

Data set [1] deals with Cavia porcellus. As to the kind of experiment: Toxicity in Guinea pig cytomegalovirus strain 22122 infected second and third trimesters of pregnant Hartley guinea pig assessed as dam liver toxicity at 4 mg/kg, po treatment started at 24 hrs post infection for 9 consecutive days. The data set is classed as organism-based. Details: dose 4 mg/kg, route oral. As to conditions: in vivo.

Data set [2] concerns Cavia porcellus. As to the kind of experiment: Toxicity in Guinea pig cytomegalovirus strain 22122 infected second and third trimesters of pregnant Hartley guinea pig assessed as dam kidney toxicity at 4 mg/kg, po treatment started at 24 hrs post infection for 9 consecutive days. The data set is classed as organism-based. Details: dose 4 mg/kg, route oral. The note with it: in vivo.

For data set [3], the system named is Cavia porcellus. As to the kind of experiment: Toxicity in Guinea pig cytomegalovirus strain 22122 infected second and third trimesters of pregnant Hartley guinea pig assessed as pup liver toxicity at 4 mg/kg, po treatment started at 24 hrs post infection for 9 consecutive days. The data set is classed as organism-based. Details: dose 4 mg/kg, route oral. The note with it: in vivo.

Data set [4] relates to Cavia porcellus. As to the kind of experiment: Toxicity in Guinea pig cytomegalovirus strain 22122 infected second and third trimesters of pregnant Hartley guinea pig assessed as pup kidney toxicity at 4 mg/kg, po treatment started at 24 hrs post infection for 9 consecutive days. The data set is classed as organism-based. Details: dose 4 mg/kg, route oral. As to conditions: in vivo.

The test system of data set [5] is Caviid betaherpesvirus 2. The data set is described as follows: Antiviral activity against Guinea pig cytomegalovirus strain 22122 infected in second and third trimesters of pregnant Hartley guinea pig assessed as reduction in dam viremia at 4 mg/kg, po qd for 5 days. The data set is classed as functional, organism-based. Details: dose 4 mg/kg. As to conditions: Guinea pig cytomegalovirus (strain 22122 / ATCC VR682) (GPCMV).

Data set [6] relates to Caviid betaherpesvirus 2. As to the kind of experiment: Antiviral activity against Guinea pig cytomegalovirus strain 22122 infected in second and third trimesters of pregnant Hartley guinea pig assessed as dam liver with detectable viral DNA at 4 mg/kg, po qd for 5 days measured 10 days post infection by real-time PCR (reference value: 100%). The data set is classed as functional. On the technique in general: Real-time PCR tracks product formation cycle by cycle.

For data set [7], the system named is Caviid betaherpesvirus 2. As to the kind of experiment: Antiviral activity against Guinea pig cytomegalovirus strain 22122 infected in second and third trimesters of pregnant Hartley guinea pig assessed as dam liver with detectable viral DNA at 4 mg/kg, po qd for 9 days measured 10 days post infection by real-time PCR (reference value: 100%). The data set is classed as functional.

Data set [8] concerns Caviid betaherpesvirus 2. The data set is described as follows: Antiviral activity against Guinea pig cytomegalovirus strain 22122 infected in second and third trimesters of pregnant Hartley guinea pig assessed as fetus liver with detectable viral DNA at 4 mg/kg, po qd for 5 days measured 10 days post infection by real-time PCR (reference value: 87%). The data set is classed as functional.

For data set [9], the system named is Caviid betaherpesvirus 2. The data set is described as follows: Antiviral activity against Guinea pig cytomegalovirus strain 22122 infected in second and third trimesters of pregnant Hartley guinea pig assessed as fetus liver with detectable viral DNA at 4 mg/kg, po qd for 9 days measured 10 days post infection by real-time PCR (reference value: 87%). The data set is classed as functional.

Data set [10] concerns Caviid betaherpesvirus 2. As to the kind of experiment: Antiviral activity against Guinea pig cytomegalovirus strain 22122 infected in second and third trimesters of pregnant Hartley guinea pig assessed as dam spleen with detectable viral DNA at 4 mg/kg, po qd for 5 days measured 10 days post infection by real-time PCR (reference value: 100%). The data set is classed as functional.

In data set [11] the test system is Caviid betaherpesvirus 2. As to the kind of experiment: Antiviral activity against Guinea pig cytomegalovirus strain 22122 infected in second and third trimesters of pregnant Hartley guinea pig assessed as dam spleen with detectable viral DNA at 4 mg/kg, po qd for 9 days measured 10 days post infection by real-time PCR (reference value: 100%). The data set is classed as functional.

Data set [12] has as its system Caviid betaherpesvirus 2. The data set is described as follows: Antiviral activity against Guinea pig cytomegalovirus strain 22122 infected in second and third trimesters of pregnant Hartley guinea pig assessed as fetus spleen with detectable viral DNA at 4 mg/kg, po qd for 5 days measured 10 days post infection by real-time PCR (reference value: 47%). The data set is classed as functional.

For data set [13], the system named is Caviid betaherpesvirus 2. As to the kind of experiment: Antiviral activity against Guinea pig cytomegalovirus strain 22122 infected in second and third trimesters of pregnant Hartley guinea pig assessed as fetus spleen with detectable viral DNA at 4 mg/kg, po qd for 9 days measured 10 days post infection by real-time PCR (reference value: 47%). The data set is classed as functional.

Data set [14] has as its system Caviid betaherpesvirus 2. As to the kind of experiment: Antiviral activity against Guinea pig cytomegalovirus strain 22122 infected in second and third trimesters of pregnant Hartley guinea pig assessed as dam placenta with detectable viral DNA at 4 mg/kg, po qd for 5 days measured 10 days post infection by real-time PCR (reference value: 100%). The data set is classed as functional.

Data set [15] relates to Caviid betaherpesvirus 2. As to the kind of experiment: Antiviral activity against Guinea pig cytomegalovirus strain 22122 infected in second and third trimesters of pregnant Hartley guinea pig assessed as dam placenta with detectable viral DNA at 4 mg/kg, po qd for 9 days measured 10 days post infection by real-time PCR (reference value: 100%). The data set is classed as functional.

For data set [16], the system named is Caviid betaherpesvirus 2. As to the kind of experiment: Antiviral activity against Guinea pig cytomegalovirus strain 22122 infected in second and third trimesters of pregnant Hartley guinea pig assessed as dam liver viral log10 genome copies/ug of DNA at 4 mg/kg, po qd for 5 days measured 10 days post infection by real-time PCR (reference value: 4.82 +/- 0.8 log10 genome copies/ug of DNA). The data set is classed as functional.

Data set [17] has as its system Caviid betaherpesvirus 2. As to the kind of experiment: Antiviral activity against Guinea pig cytomegalovirus strain 22122 infected in second and third trimesters of pregnant Hartley guinea pig assessed as dam liver viral log10 genome copies/ug of DNA at 4 mg/kg, po qd for 9 days measured 10 days post infection by real-time PCR (reference value: 4.82 +/- 0.8 log10 genome copies/ug of DNA). The data set is classed as functional.

Data set [18] concerns Caviid betaherpesvirus 2. The data set is described as follows: Antiviral activity against Guinea pig cytomegalovirus strain 22122 infected in second and third trimesters of pregnant Hartley guinea pig assessed as fetus liver viral log10 genome copies/ug of DNA at 4 mg/kg, po qd for 5 days measured 10 days post infection by real-time PCR (reference value: 2.20 +/- 0.6 log10 genome copies/ug of DNA). The data set is classed as functional.

The test system of data set [19] is Caviid betaherpesvirus 2. As to the kind of experiment: Antiviral activity against Guinea pig cytomegalovirus strain 22122 infected in second and third trimesters of pregnant Hartley guinea pig assessed as fetus liver viral log10 genome copies/ug of DNA at 4 mg/kg, po qd for 9 days measured 10 days post infection by real-time PCR (reference value: 2.20 +/- 0.6 log10 genome copies/ug of DNA). The data set is classed as functional.

The subject of data set [20] is Caviid betaherpesvirus 2. As to the kind of experiment: Antiviral activity against Guinea pig cytomegalovirus strain 22122 infected in second and third trimesters of pregnant Hartley guinea pig assessed as dam spleen viral log10 genome copies/ug of DNA at 4 mg/kg, po qd for 5 days measured 10 days post infection by real-time PCR (reference value: 4.12 +/- 0.3 log10 genome copies/ug of DNA). The data set is classed as functional.

Data set [21] deals with Caviid betaherpesvirus 2. As to the kind of experiment: Antiviral activity against Guinea pig cytomegalovirus strain 22122 infected in second and third trimesters of pregnant Hartley guinea pig assessed as dam spleen viral log10 genome copies/ug of DNA at 4 mg/kg, po qd for 9 days measured 10 days post infection by real-time PCR (reference value: 4.12 +/- 0.3 log10 genome copies/ug of DNA). The data set is classed as functional.

Data set [22] deals with Caviid betaherpesvirus 2. As to the kind of experiment: Antiviral activity against Guinea pig cytomegalovirus strain 22122 infected in second and third trimesters of pregnant Hartley guinea pig assessed as fetus spleen viral log10 genome copies/ug of DNA at 4 mg/kg, po qd for 5 days measured 10 days post infection by real-time PCR (reference value: 1.63 +/- 0.6 log10 genome copies/ug of DNA). The data set is classed as functional.

Data set [23] has as its system Caviid betaherpesvirus 2. As to the kind of experiment: Antiviral activity against Guinea pig cytomegalovirus strain 22122 infected in second and third trimesters of pregnant Hartley guinea pig assessed as fetus spleen viral log10 genome copies/ug of DNA at 4 mg/kg, po qd for 9 days measured 10 days post infection by real-time PCR (reference value: 1.63 +/- 0.6 log10 genome copies/ug of DNA). The data set is classed as functional.

Activity calls are given as the source filed them. No cut-off for these calls is given here.

For `CCCCCCCCCCCCCCCCOCCCOP(=O)(O)CO[C@H](CO)Cn1ccc(N)nc1=O` [BRINCIDOFOVIR], the Activity entry with Cavia porcellus [1] is recorded as “Non-toxic”; in the data set with Cavia porcellus [2], “Non-toxic”; in the data set on Cavia porcellus [3] it was “Non-toxic”; in the data set on Cavia porcellus [4], “Non-toxic”; with Caviid betaherpesvirus 2 [6] it was 100%; in the data set with Caviid betaherpesvirus 2 [7], 100%. For the same molecule, the Activity in the data set on Caviid betaherpesvirus 2 [8] is given as 92%; in the data set on Caviid betaherpesvirus 2 [9], 85%; with Caviid betaherpesvirus 2 [10] it was 100%; with Caviid betaherpesvirus 2 [11], 100%; in the data set on Caviid betaherpesvirus 2 [12], 77%; in the data set on Caviid betaherpesvirus 2 [13] it was 62%. Also, the Activity in the data set on Caviid betaherpesvirus 2 [14] was 100%; with Caviid betaherpesvirus 2 [15], 100%; in the data set on Caviid betaherpesvirus 2 [16], 2.98; with Caviid betaherpesvirus 2 [17], 3.01; in the data set on Caviid betaherpesvirus 2 [18] it was 2.12; with Caviid betaherpesvirus 2 [19], 1.87. Also, the Activity is 2.77 with Caviid betaherpesvirus 2 [20], 2.09 in the data set on Caviid betaherpesvirus 2 [21], 1.91 with Caviid betaherpesvirus 2 [22] and 1.65 in the data set with Caviid betaherpesvirus 2 [23]. Further, the result with Caviid betaherpesvirus 2 [5] was Active.
